{
  "source": "patent US20160194683A1",
  "about": "“Gas Biosensors” (priority 2013, published 2016)",
  "key": {"[1]": {"biological_target": "XylR of Pseudomonas putida (Pseudomonas putida, UniProt P06519)", "sequence (P06519 whole entry)": "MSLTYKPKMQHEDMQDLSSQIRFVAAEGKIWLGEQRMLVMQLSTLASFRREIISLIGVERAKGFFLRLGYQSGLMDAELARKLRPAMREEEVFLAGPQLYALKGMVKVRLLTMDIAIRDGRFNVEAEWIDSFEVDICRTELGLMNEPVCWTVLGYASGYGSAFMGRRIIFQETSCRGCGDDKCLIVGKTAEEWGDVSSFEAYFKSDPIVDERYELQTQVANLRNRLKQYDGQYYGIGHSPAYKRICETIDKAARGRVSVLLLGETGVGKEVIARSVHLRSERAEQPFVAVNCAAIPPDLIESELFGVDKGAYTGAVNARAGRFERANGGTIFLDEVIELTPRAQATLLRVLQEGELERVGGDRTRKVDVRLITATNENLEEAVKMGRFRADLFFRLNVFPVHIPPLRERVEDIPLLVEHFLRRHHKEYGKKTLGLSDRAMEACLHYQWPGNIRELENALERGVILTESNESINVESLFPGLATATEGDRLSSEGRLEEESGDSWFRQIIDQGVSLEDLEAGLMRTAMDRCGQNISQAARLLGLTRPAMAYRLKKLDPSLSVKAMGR"}, "TodST of P. putida": {"biological_target": "T1, TodST of P. putida (Pseudomonas putida, UniProt A5W4E3)", "T1 construct": "host or cells: P. putida str; F1", "T1 sequence (A5W4E3 whole entry)": "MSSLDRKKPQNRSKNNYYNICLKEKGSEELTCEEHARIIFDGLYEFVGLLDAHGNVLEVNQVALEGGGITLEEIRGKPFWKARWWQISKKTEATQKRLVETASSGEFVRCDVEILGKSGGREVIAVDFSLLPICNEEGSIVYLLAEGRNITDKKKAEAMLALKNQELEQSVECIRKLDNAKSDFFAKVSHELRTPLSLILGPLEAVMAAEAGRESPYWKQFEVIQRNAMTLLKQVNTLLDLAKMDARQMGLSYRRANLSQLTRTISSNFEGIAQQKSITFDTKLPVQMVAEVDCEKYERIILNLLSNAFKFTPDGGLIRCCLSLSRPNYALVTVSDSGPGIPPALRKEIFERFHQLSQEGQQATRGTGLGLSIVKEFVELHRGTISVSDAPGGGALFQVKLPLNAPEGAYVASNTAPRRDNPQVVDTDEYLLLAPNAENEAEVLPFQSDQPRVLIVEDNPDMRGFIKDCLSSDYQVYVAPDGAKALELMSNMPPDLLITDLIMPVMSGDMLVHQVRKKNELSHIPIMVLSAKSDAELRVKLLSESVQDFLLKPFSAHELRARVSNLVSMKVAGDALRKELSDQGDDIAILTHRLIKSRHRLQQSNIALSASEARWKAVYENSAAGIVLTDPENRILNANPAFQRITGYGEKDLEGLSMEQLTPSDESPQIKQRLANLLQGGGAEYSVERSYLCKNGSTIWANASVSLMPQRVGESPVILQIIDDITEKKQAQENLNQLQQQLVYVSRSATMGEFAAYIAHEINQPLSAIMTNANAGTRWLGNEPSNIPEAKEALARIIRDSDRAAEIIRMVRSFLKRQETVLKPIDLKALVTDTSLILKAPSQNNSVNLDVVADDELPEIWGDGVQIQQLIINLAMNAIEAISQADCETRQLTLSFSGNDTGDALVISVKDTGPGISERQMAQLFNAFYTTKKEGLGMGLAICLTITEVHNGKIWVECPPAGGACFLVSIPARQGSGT", "settings": "host P. putida str. F1; todXp-luxCDABE; cited from earlier work"}, "[2]": {"tested_on": "TbuT of Ralstonia pickettii", "settings": "host E. coli; tbuAlp-luxAB; cited from earlier work"}, "E. coli MG1655": {"tested_on": "E. coli MG1655", "test": "Growth of E. coli MG1655 MHT integration strains in LB plus 200 mM KBr", "assay_type": "cell-based", "settings": "headspace gas collected at 5 hrs", "text": "Three strains carrying an integrated Batis maritima MHT gene (BmMHT) were created by coupling the BmMHT gene to a constitutive promoter (P14) and three ribosomal binding sites (RBS) with different strengths (BCD2, BCD8, BCD14) in the integration vector pOSIP. Each was integrated into the phage 186 attachment site within the genome of E. coli MG1655 using the site specific recombinase from phage 186. Strains having the desired chromosomal insertions were verified by PCR.\nCells with a genomic copy of the MHT construct under control of the three different RBS were then tested for MHT activity by growing the cells in LB plus 200 mM KBr. Headspace gas was collected at 5 hrs, and CH3Br measured by GC-MS.\nThe CH3Br gas was readily detectable in the headspace, whereas the uninduced vector control cells produced no gas at all."}, "[3]": {"tested_on": "FruR of Erwinia herbicola", "settings": "cited from earlier work"}, "AraC of E. coli": {"biological_target": "AraC of E. coli (Escherichia coli, UniProt P0A9E0)", "sequence (P0A9E0 whole entry)": "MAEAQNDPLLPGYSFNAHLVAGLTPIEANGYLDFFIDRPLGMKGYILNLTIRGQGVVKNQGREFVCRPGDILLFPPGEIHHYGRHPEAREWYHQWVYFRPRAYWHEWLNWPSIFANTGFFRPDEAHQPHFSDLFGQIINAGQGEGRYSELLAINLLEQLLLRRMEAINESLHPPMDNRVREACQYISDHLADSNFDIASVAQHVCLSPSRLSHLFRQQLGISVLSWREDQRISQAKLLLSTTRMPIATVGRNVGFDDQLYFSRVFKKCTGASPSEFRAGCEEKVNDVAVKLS", "settings": "cited from earlier work"}, "[4]": {"tested_on": "PhnR of Burkholderia sartisoli", "settings": "host B. sartisoli; phnSp-luxAB; cited from earlier work"}, "NahR of P. putida": {"biological_target": "T2, NahR of P. putida (Pseudomonas putida, UniProt P10183)", "T2 construct": "host or cells: P. putida", "T2 sequence (P10183 1-300)": "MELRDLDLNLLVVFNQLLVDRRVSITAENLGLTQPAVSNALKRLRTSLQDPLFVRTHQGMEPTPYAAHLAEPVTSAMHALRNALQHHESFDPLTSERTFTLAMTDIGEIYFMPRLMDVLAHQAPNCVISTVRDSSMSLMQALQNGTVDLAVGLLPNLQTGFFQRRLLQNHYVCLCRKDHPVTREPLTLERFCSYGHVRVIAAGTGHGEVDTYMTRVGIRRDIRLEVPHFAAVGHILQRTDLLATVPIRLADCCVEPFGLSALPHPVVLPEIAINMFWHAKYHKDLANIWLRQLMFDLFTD", "settings": "host P. putida; nahGp-luxAB; cited from earlier work"}, "DmpR of P. putida": {"tested_on": "DmpR of P. putida", "settings": "host P. putida; Po-luxAB; cited from earlier work"}, "[5]": {"tested_on": "SOS response proteins of B. subtilis", "settings": "host B. subtilis; yorBp-lucFF; cited from earlier work"}, "MphR of E. coli": {"tested_on": "MphR of E. coli", "settings": "host E. coli; mphAp-lacZ; cited from earlier work"}, "[6]": {"tested_on": "SpoIIID and σ^E of B. subtilis", "settings": "host B. subtilis; yheI-lucFF; cited from earlier work"}, "DnaK and σ32 of E. coli": {"tested_on": "DnaK and σ32 of E. coli", "settings": "host E. coli; dnaKp-luxCDABE; increase in intracellular misfolded proteins; cited from earlier work"}, "[7]": {"tested_on": "Crp-cAMP transcriptional dual regulator of E. coli", "settings": "host E. coli; grpEP-luxCDABE; increase in intracellular misfolded proteins; cited from earlier work"}, "ArsR of E. coli": {"tested_on": "ArsR of E. coli", "settings": "host E. coli; arsRp-luxAB; cited from earlier work"}, "RecA-LexA of E. coli [8]": {"tested_on": "RecA-LexA of E. coli", "settings": "host E. coli; sfiA-lacZ; cited from earlier work"}, "RecA-LexA of E. coli [9]": {"tested_on": "RecA-LexA of E. coli", "settings": "host E. coli; reAp-luxCDABE; cited from earlier work"}, "[10]": {"settings": "host Escherichia coli; Pu-lucFF; cited from earlier work"}},
  "note": "Where two headings read alike, the source gives them in different places.",
  "data": [
    {"compound": "Cc1cccc(CO)c1", "note": "[3-methylbenzylalcohol]", "values": [
      {"measurement": "EC50", "setting": "[1]; E. coli, firefly luciferase under XylR and Pu; means±standard deviations; read-out: K1/2 of luminescence concentration dependence; cited from earlier work", "result": 2690, "unit": "µM"}
    ]},
    {"compound": "c1ccccc1", "note": "[Benzene]", "values": [
      {"measurement": "Detection sensitivity", "setting": "[1]; [10]", "result": 40, "unit": "µM"},
      {"measurement": "Detection sensitivity", "setting": "TodST of P. putida", "result": 0.3, "unit": "µM"},
      {"measurement": "Detection sensitivity", "setting": "[2]", "result": 0.24, "unit": "µM"}
    ]},
    {"compound": "CBr", "note": "[CH3Br]", "values": [
      {"measurement": "Toxicity to cells (cell growth)", "setting": "E. coli MG1655", "result": "Neither the bromine ions, nor the CH3Br gas were toxic"}
    ]},
    {"compound": "O=C(CO)[C@@H](O)[C@H](O)[C@H](O)CO", "note": "[Fructose]", "values": [
      {"measurement": "Detection sensitivity", "setting": "[3]", "result": "~2", "unit": "µM"}
    ]},
    {"compound": "O=C[C@H](O)[C@@H](O)[C@@H](O)CO", "note": "[L-Arabinose]", "values": [
      {"measurement": "Detection sensitivity", "setting": "AraC of E. coli", "result": 0.5, "unit": "µM"}
    ]},
    {"compound": "c1ccc2ccccc2c1", "note": "[Naphthalene]", "values": [
      {"measurement": "Detection sensitivity", "setting": "[4]", "result": 0.17, "unit": "µM"},
      {"measurement": "Detection sensitivity", "setting": "NahR of P. putida", "result": 10, "unit": "nM"}
    ]},
    {"compound": "Oc1ccccc1", "note": "[Phenol]", "values": [
      {"measurement": "Detection sensitivity", "setting": "DmpR of P. putida", "result": 3, "unit": "µM"},
      {"measurement": "Detection sensitivity", "setting": "TodST of P. putida", "result": 0.3, "unit": "µM"}
    ]},
    {"compound": "Br", "note": "[bromine ions]", "values": [
      {"measurement": "Toxicity to cells (cell growth)", "setting": "E. coli MG1655", "result": "Neither the bromine ions, nor the CH3Br gas were toxic"}
    ]},
    {"compound": "O=C(O)c1cn(C2CC2)c2cc(N3CCNCC3)c(F)cc2c1=O", "note": "[ciprofloxacin]", "values": [
      {"measurement": "Detection sensitivity", "setting": "[5]", "result": 60, "unit": "nM"}
    ]},
    {"compound": "CC[C@H]1OC(=O)[C@H](C)[C@@H](O[C@H]2C[C@@](C)(OC)[C@@H](O)[C@H](C)O2)[C@H](C)[C@@H](O[C@@H]2O[C@H](C)C[C@H](N(C)C)[C@H]2O)[C@](C)(O)C[C@@H](C)C(=O)[C@H](C)[C@@H](O)[C@]1(C)O", "note": "[erythromycin]", "values": [
      {"measurement": "Detection sensitivity", "setting": "MphR of E. coli", "result": "~10", "unit": "µM"}
    ]},
    {"compound": "CC(=O)NC[C@H]1CN(c2ccc(N3CCOCC3)c(F)c2)C(=O)O1", "note": "[linezolid]", "values": [
      {"measurement": "Detection sensitivity", "setting": "[6]", "result": 0.1, "unit": "µM"}
    ]},
    {"compound": "Cc1cccc(C)c1", "note": "[m-xylene]", "values": [
      {"measurement": "EC50", "setting": "[1]; read-out: K1/2 of luminescence concentration dependence; E. coli, firefly luciferase under XylR and Pu; means±standard deviations; cited from earlier work", "result": "39 ± 3.8", "unit": "µM"},
      {"measurement": "Detection sensitivity", "setting": "TodST of P. putida", "result": 0.3, "unit": "µM"}
    ]},
    {"compound": "CO", "note": "[methanol]", "values": [
      {"measurement": "Detection sensitivity", "setting": "DnaK and σ32 of E. coli", "result": "0.25M methanol,"}
    ]},
    {"compound": "Cc1ccc(C)cc1", "note": "[p-xylene]", "values": [
      {"measurement": "Detection sensitivity", "setting": "TodST of P. putida", "result": 0.3, "unit": "µM"}
    ]},
    {"compound": "Oc1c(Cl)c(Cl)c(Cl)c(Cl)c1Cl", "note": "[pentachlorophenol]", "values": [
      {"measurement": "Detection sensitivity", "setting": "[7]", "result": 0.14, "unit": "nM"}
    ]},
    {"compound": "c1ccc2c(c1)ccc1ccccc12", "note": "[phenanthrene]", "values": [
      {"measurement": "Detection sensitivity", "setting": "[4]", "result": 0.17, "unit": "µM"}
    ]},
    {"compound": "O=C(O)c1ccccc1O", "note": "[salicylate]", "values": [
      {"measurement": "Detection sensitivity", "setting": "NahR of P. putida", "result": 10, "unit": "nM"}
    ]},
    {"compound": "OC[C@H]1O[C@@](CO)(O[C@H]2O[C@H](CO)[C@@H](O)[C@H](O)[C@H]2O)[C@@H](O)[C@@H]1O", "note": "[sucrose]", "values": [
      {"measurement": "Detection sensitivity", "setting": "[3]", "result": "~2", "unit": "µM"}
    ]},
    {"compound": "Cc1ccccc1", "note": "[toluene]", "values": [
      {"measurement": "Detection sensitivity", "setting": "[1]; [10]", "result": 40, "unit": "µM"},
      {"measurement": "Detection sensitivity", "setting": "TodST of P. putida", "result": 0.3, "unit": "µM"},
      {"measurement": "Detection sensitivity", "setting": "[2]", "result": 0.24, "unit": "µM"}
    ]},
    {"compound": "ClC=C(Cl)Cl", "note": "[trichloroethene]", "values": [
      {"measurement": "Detection sensitivity", "setting": "TodST of P. putida", "result": 0.3, "unit": "µM"}
    ]},
    {"compound": "Arsenite", "values": [
      {"measurement": "Detection sensitivity", "setting": "ArsR of E. coli", "result": 5, "unit": "nM"}
    ]},
    {"compound": "Xylene", "values": [
      {"measurement": "Detection sensitivity", "setting": "[1]; [10]", "result": 40, "unit": "µM"},
      {"measurement": "Detection sensitivity", "setting": "[2]", "result": 0.24, "unit": "µM"}
    ]},
    {"compound": "antimonite", "values": [
      {"measurement": "Detection sensitivity", "setting": "ArsR of E. coli", "result": 5, "unit": "nM"}
    ]},
    {"compound": "mitomycin C", "values": [
      {"measurement": "Detection sensitivity", "setting": "RecA-LexA of E. coli [8]", "result": 4, "unit": "nM mitomycin C"},
      {"measurement": "Detection sensitivity", "setting": "RecA-LexA of E. coli [9]", "result": 0.2, "unit": "nM mitomycin C"}
    ]}
  ]
}
